The values below come from PMC10817493, “p-Terphenyl and Diphenyl Ether Derivatives from the Marine-Derived Fungus Aspergillus candidus HM5-4” (Marine Drugs, 2023).

The structures appear in SMILES notation.

For test [1], the system named is human myeloid leukemia cells (K562). The experiment in a line: Cytotoxic assay (modified MTT), K562. Particulars: mean ± SD of three parallel experiments. It is filed as cell-based. On the procedure:
(§1) All the compounds mentioned above were tested for their cytotoxic activities against human myeloid leukemia cells (K562), human liver cancer cells (BEL-7402), human gastric cancer cells (SGC-7901), human non-small cell lung cancer cells (A549) and human HeLa cervical cancer cells. […] Compared to the cytotoxic activity of 7, the cytotoxic activity of 5 was much stronger.
(§2) All above-mentioned compounds were evaluated for their cytotoxicity in five human tumor cell lines: K562, BEL-7402, SGC-7901, A549 and HeLa cells which were bought from the Cell Bank of Type Culture Collection of the Shanghai Institute of Cell Biology, Chinese Academy of Sciences, using modified MTT methods. The details of this are described in our previous paper. The positive control was cisplatin.

Test [2] relates to human liver cancer cells (BEL-7402). The experiment in a line: Cytotoxic assay (modified MTT), BEL-7402. As to conditions: mean ± SD of three parallel experiments. It is filed as cell-based. On the procedure: as §1, §2
The test system of test [3] is human gastric cancer cells (SGC-7901). The experiment in a line: Cytotoxic assay (modified MTT), SGC-7901. Particulars: mean ± SD of three parallel experiments. It is filed as cell-based. On the procedure: as §1, §2
Test [4] has as its system human non-small cell lung cancer cells (A549). Nature of the test: Cytotoxic assay (modified MTT), A549. The format is cell-based. Particulars: mean ± SD of three parallel experiments. On the procedure: as §1, §2
Test [5] has as its system human HeLa cervical cancer cells. Nature of the test: Cytotoxic assay (modified MTT), HeLa. The format is cell-based. Particulars: mean ± SD of three parallel experiments. On the procedure: as §1, §2
Test [6] concerns Neoscytalidium dimidiatum. The experiment in a line: Antifungal activity, filter paper disc agar diffusion method. The format is cell-based. Particulars: includes 6 mm disc, 10.0 µg/disc (carbendazim 10 μL, 1.0 mg/mL), mean ± SD, triplicate. On the procedure: The antifungal activities of three known compounds (5–7) were determined by the filter paper disc agar diffusion method.
The inhibitory activities of some compounds against six phytopathogenic fungi (Fusarium oxysporum f. sp. cubense, Colletotrichum gloeosporioides, Thielaviopsis paradoxa, Bipolaris cactivora (Petrak) Alcorn, Neoscytalidium dimidiatum, and Colletotrichum scovillei) were evaluated using the filter paper disc agar diffusion method; 250 μL of the fungal solution was aspirated onto the corresponding solid medium and spread evenly with a cotton swab. Samples were dissolved in MeOH to prepare solutions of 1.0 mg/mL and 3.0 mg/mL concentrations. Carbendazim (10 μL, 1.0 mg/mL) was used as a positive control and MeOH (10 μL) was used as negative control. The diameter of the inhibition zones of the plates cultured at 37 °C for 24 h were measured including the 6 mm disc diameter. Experiments were performed in triplicate.
In general terms: Agar diffusion results depend on both activity and mobility in agar.

The next test addresses α-glucosidase (Saccharomyces cerevisiae, UniProt P53341). Nature of the test: α-Glucosidase inhibition assay (PNPG substrate). It is filed as biochemical. On the procedure: All abovementioned compounds were measured for their inhibitory effects against α-glucosidase, using PNPG as the substrate. The enzyme inhibitory assay was carried out by a formerly described method, with some modifications. Compounds were dissolved in DMSO and six concentration gradients were set in turn. All the assays were performed in 0.1 M sodium phosphate buffer (PH = 6.8). The 10 μL sample was mixed with 100 μL α-glucosidase solution (0.2 U/mL, Sigma, Kanagawa, Japan) and shaken well, then added to a 96-well plate and incubated at 37 °C for 15 min. Subsequently, 40 μL of 2.5 mM 4-nitrophenyl-α-D-glucopyranoside was added and further incubated at 37 °C for 15 min. DMSO was used as a control and the blank wells contained buffer in place of substrate. The OD values were tested at 405 nm with a microplate reader. […] The percentage inhibition was calculated by the following equation:% inhibition = ((ODcontrol − ODsample)/(ODcontrol − ODblank)) × 100

For test [7], the system named is K562, BEL-7402, SGC-7901, A549 and HeLa cells. The experiment in a line: Cytotoxic activity, summary over five human tumor cell lines. The format is cell-based. Particulars: range over compounds 5 and 7 and K562, BEL-7402, SGC-7901, A549, HeLa, read-out: IC50 values, range over the five cancer cell lines.
From the text: Two undescribed p-terphenyl derivatives, asperterphenylcins A–B (1–2), and two undescribed diphenyl ether derivatives, asperdiphenylcins A–B (3–4), together with three previously described p-terphenyl derivatives—4″-deoxyterprenin (5), terphenyllin (6), and 3″-hydroxyterphenyllin (7)—were obtained from the solid-rice culture of the marine-derived fungus Aspergillus candidus HM5-4, which was isolated from sponges from the South China Sea. Their structures were elucidated by HRESIMS data and NMR spectroscopic analysis.
as §2

[8] abbreviates: Homo sapiens, Bel-7402, BEL-7402 cells.
Where [9] appears, read: Homo sapiens, SGC-7901, SGC-7901 cells.

Sequence of α-glucosidase (P53341 whole entry): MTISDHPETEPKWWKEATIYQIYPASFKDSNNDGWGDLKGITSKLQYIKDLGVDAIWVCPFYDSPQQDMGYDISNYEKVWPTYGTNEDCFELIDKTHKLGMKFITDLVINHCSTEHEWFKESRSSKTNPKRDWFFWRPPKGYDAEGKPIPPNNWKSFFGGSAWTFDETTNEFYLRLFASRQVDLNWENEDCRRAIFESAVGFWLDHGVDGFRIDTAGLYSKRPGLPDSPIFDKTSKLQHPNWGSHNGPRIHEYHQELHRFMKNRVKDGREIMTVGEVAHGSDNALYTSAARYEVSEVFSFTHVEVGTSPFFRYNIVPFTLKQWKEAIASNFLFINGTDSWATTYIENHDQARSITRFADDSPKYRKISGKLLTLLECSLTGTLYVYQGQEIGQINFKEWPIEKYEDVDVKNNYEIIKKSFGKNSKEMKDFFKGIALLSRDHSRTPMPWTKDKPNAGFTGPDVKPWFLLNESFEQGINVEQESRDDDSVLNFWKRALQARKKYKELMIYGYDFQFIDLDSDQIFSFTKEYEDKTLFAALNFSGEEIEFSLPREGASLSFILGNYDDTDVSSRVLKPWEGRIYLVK

Consider `N.N.[Cl][Pt][Cl]` [Cisplatin, cisplatin, reference compound], for which the IC50 (usually the concentration at which inhibition is half-maximal) in test [1] is 3.08 ± 0.05 µM; in test [2] (BEL-7402 cells) it was 4.02 ± 0.06 µM; in test [3] (SGC-7901 cells), 4.11 ± 0.02 µM; in test [4] (A549 cells), 1.93 ± 0.02 µM; in test [5], 11.3 ± 0.15 µM.
Regarding `COC(=O)Nc1nc2ccccc2[nH]1` [Carbendazim, reference compound], in test [6], the “diameter of inhibition zone against N. dimidiatum” value is 55.00 ± 0.82 mm.
With `COc1ccc(O)c(-c2c(OC)cc(-c3ccc(O)cc3)c(OC)c2O)c1` [Compound 1, Asperterphenylcin A], the IC50 in test [1] (Homo sapiens) was over 20 µg/mL; in test [2] (setting [8]), over 20 µg/mL; in test [3] (setting [9]) it was over 20 µg/mL; in test [4] (Homo sapiens, A549, A549 cells) it was over 20 µg/mL; in test [5] (Homo sapiens), over 20 µg/mL.
For the compound `COc1c(-c2ccc(O)cc2)cc(O)c(-c2ccc(O)cc2)c1OC` [Compound 2, Asperterphenylcin B], the IC50 in test [1] (Homo sapiens) was over 20 µg/mL; in test [2] (setting [8]) it was over 20 µg/mL; in test [3] (setting [9]) it was over 20 µg/mL; in test [4] (Homo sapiens, A549, A549 cells), over 20 µg/mL; in test [5] (Homo sapiens), over 20 µg/mL.
Consider `COc1cccc2c1C(=O)OCc1cc(C(=O)O)cc(O)c1O2` [Compound 4, Asperdiphenylcin B], for which the IC50 was over 20 µg/mL in test [1] (Homo sapiens); over 20 µg/mL in test [2] (setting [8]); over 20 µg/mL in test [3] (setting [9]); over 20 µg/mL in test [4] (Homo sapiens, A549, A549 cells); over 20 µg/mL in test [5] (Homo sapiens). On α-glucosidase, the “α-glucosidase inhibitory activity (in words)” value is “no α-glucosidase inhibitory activity”.
In the case of `COc1cc(-c2ccc(O)c(O)c2)c(OC)c(O)c1-c1ccc(O)cc1` [Compound 7, 3″-hydroxyterphenyllin], the IC50 was 34 ± 0.4 µM in test [1] (Homo sapiens), 53.6 ± 0.73 µM in test [5] (Homo sapiens) and 3.32 to 60.4 µM in test [7].
Turning to `COc1cc(-c2ccc(O)cc2)c(OC)c(O)c1-c1ccc(O)cc1` [Compound 6, terphenyllin], the IC50 in test [1] (Homo sapiens) is over 20 µg/mL; in test [2] (setting [8]), over 20 µg/mL; in test [3] (setting [9]) it was over 20 µg/mL; in test [4] (Homo sapiens, A549, A549 cells), over 20 µg/mL; in test [5] (Homo sapiens) it was over 20 µg/mL.
Regarding `COc1cc(-c2ccccc2)c(OC)c(O)c1-c1ccc(OCC=C(C)C)c(O)c1` [Compound 5, 4″-deoxyterprenin], the IC50 was 15.03 ± 0.14 µM in test [1] (Homo sapiens); 6.69 ± 0.12 µM in test [2] (setting [8]); 3.67 ± 0.17 µM in test [3] (setting [9]); 3.32 ± 0.1 µM in test [4] (Homo sapiens, A549, A549 cells); 44.77 ± 0.13 µM in test [5] (Homo sapiens); 3.32 to 60.4 µM in test [7]. The “α-glucosidase inhibitory activity (in words)” value on α-glucosidase is given as “completely disappeared”. The “diameter of inhibition zone against N. dimidiatum” value in test [6] came out at 31.67 ± 2.36 mm.
For `COc1cccc2c1C(=O)OCc1cc(COC(C)=O)cc(O)c1O2` [Compound 3, Asperdiphenylcin A], the IC50 in test [1] (Homo sapiens) is over 20 µg/mL; in test [2] (setting [8]), over 20 µg/mL; in test [3] (setting [9]), over 20 µg/mL; in test [4] (Homo sapiens, A549, A549 cells) it was over 20 µg/mL; in test [5] (Homo sapiens) it was over 20 µg/mL. Further, at α-glucosidase, the “α-glucosidase inhibitory activity (in words)” value is reported as “no α-glucosidase inhibitory activity”.
